According to patent US6911319B2, “Methods and kits for detecting protein kinases” (Lumitech (UK) Limited, priority 2000, dated 2005):

Assays:
Format in all cases: biochemical
[1] = target: luciferase-luciferin reaction (Photinus pyralis, UniProt P08659); assay: Effect of inhibitor on the bioluminescent ATP detection system; conditions: even at the highest concentration of the inhibitor; 10 μM ATP, 100 μl volumes, 96 well plate
Experimental: We initially chose to look at a broad spectrum kinase inhibitor staurosporine (Calbiochem). Firstly, we tested the inhibitor (in DMSO) on the ATP detection reagent to ensure that the inhibitor would not affect the luciferase-luciferin reaction.
The results are presented as the means of triplicate wells±SD.
The experiment was performed using 10 μM ATP in 100 μl volumes in a 96 well plate with the addition of 20 μl of ATP detection reagent.

[2] = target: T1, JNK2α2 (Homo sapiens, UniProt P45984); assay: Bioluminescent protein kinase assay, JNK2α2 with ATF-2 as substrate
T1 construct: purchased Upstate Discovery
T1 sequence (P45984 whole entry): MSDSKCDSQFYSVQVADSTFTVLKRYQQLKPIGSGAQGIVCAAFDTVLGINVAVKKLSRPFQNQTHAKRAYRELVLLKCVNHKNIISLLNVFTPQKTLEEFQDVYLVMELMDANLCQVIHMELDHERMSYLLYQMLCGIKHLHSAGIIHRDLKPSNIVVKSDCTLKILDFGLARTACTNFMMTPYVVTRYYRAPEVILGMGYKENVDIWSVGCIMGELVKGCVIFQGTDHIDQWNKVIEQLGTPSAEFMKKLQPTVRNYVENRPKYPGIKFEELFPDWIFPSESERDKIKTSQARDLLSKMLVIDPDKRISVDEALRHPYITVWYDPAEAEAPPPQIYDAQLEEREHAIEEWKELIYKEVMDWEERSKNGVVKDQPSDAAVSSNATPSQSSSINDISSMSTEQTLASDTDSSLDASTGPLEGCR
Experimental: The lower concentration had little effect, however 5 μM caused approximately 50% inhibition after 30 minutes at 30° C.
The above assay was performed in 200 μl volumes in plastic tubes in, a 30° C. waterbath. At each time point 20 μl samples were removed from the tubes and added to wells of a 96 well plate, followed by the addition of 20 μl of ATP detection reagent. The final concentration of ATP used was 12.5 μM, with JNK2α2 at 1.25 μM and ATF-2 at 2.55 μM.

[3] = tested on: raf-1; assay: Bioluminescent protein kinase assay, raf-1 activation of inactive MEK-1; conditions: two different concentrations of PD098059; inactive MEK-1 as substrate
[4] = target: T2, MAPK-1/ERK-1 (Homo sapiens, UniProt P27361); assay: Bioluminescent protein kinase assay, MAPK-1 with MBP as substrate; conditions: 30° C. for 30 minutes, MBP 2.72 μM
T2 construct: purchased UBI (Upstate Biotechnology)
T2 sequence (P27361 whole entry): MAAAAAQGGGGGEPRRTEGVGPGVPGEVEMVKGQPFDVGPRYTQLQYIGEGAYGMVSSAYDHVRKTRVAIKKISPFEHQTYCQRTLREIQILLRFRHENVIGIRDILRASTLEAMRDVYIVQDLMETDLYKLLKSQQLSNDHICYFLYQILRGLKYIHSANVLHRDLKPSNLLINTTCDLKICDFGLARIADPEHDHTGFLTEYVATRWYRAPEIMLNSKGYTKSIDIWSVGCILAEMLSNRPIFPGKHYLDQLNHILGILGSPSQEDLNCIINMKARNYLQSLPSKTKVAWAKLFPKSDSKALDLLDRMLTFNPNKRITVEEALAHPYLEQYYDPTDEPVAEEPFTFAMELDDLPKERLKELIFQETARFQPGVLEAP
Experimental: We also investigated the effect of genistein (Calbiochem) on MAPK-1 activity with MBP as substrate.
The assay buffer used was the same as for the SAP kinases (see above). The assay was performed in 100 μl volumes in a 96 well microtitre plate at 30° C. for 30 minutes. MBP (Calbiochem) was used at the same concentration as previously described (2.72 μM), with the activated MAPK1/ERK1 (UBI) used at a final concentration of 2.5U per100 μl reaction volume. The inhibitor was added at concentrations of 0, 0.1, 0.25, 0.5 and 1.0 μM, with 10 μl being added per well in 0.1% (v/v) DMSO.
For completeness, control samples with and without DMSO (0+DMSO and 0−DMSO, respectively) were also analysed to confirm that there was no effect of DMSO on the performance of the assay.

Sequence of luciferase-luciferin reaction (P08659 whole entry): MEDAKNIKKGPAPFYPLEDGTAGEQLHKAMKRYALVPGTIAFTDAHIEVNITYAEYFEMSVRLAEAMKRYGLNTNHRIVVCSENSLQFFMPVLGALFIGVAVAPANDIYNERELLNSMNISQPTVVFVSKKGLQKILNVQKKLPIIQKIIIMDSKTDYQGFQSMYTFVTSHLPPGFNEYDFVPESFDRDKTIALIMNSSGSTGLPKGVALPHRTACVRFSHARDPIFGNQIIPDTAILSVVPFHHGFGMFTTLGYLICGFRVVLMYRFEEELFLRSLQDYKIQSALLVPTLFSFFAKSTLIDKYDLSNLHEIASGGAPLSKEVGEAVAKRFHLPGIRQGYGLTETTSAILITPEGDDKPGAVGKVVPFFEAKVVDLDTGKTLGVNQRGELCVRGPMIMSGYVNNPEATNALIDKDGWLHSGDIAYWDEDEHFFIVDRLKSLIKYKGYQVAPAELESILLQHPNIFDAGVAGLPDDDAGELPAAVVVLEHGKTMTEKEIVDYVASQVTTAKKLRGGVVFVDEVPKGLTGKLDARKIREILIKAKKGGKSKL

For `CN[C@@H]1C[C@H]2O[C@@](C)([C@@H]1OC)n1c3ccccc3c3c4c(c5c6ccccc6n2c5c31)C(=O)NC4` [staurosporine], the “effect upon light output” value [1] was “no significant effect”, the “inhibition of JNK2α2 activity” value ([2]; 5 μM staurosporine, after 30 minutes at 30° C., ATP 12.5 μM, JNK2α2 1.25 μM, ATF-2 2.55 μM) was “approximately 50%” and the “effect on JNK2α2 activity” value ([2]; the lower of two staurosporine concentrations, 30° C.) was “little effect”.
For `COc1cccc(-c2cc(=O)c3ccccc3o2)c1N` [PD098059], the “light output in the presence of the inhibitor (indicating reduced kinase activity)” value [3] was “concentration dependent increase”.
With `O=c1c(-c2ccc(O)cc2)coc2cc(O)cc(O)c12` [genistein] the “effect on MAPK-1 activity” value ([4]; genistein 500 nM) was “an effect” and the “effect on MAPK-1 activity” value ([4]; genistein 1 μM) was “increased inhibitory activity”.
